{"source": "patent US7063946B2", "about": "“Methods, reagents, kits and apparatus for protein function analysis” (Meso Scale Technologies, LLC., priority 2001, dated 2006)", "key": {"[1]": {"molecular_target": "T1, c-Myc peptide [SEQ ID No. 4] (Homo sapiens, UniProt P01106)", "T1 construct": "phosphothreonine (T58) and phosphoserine (S62) (chemical modification); purchased New England Peptide, Fitchburg Mass; host or cells: chemical synthesis", "T1 sequence (P01106 with tags, fused parts or gaps limits assumed)": "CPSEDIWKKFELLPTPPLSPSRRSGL", "experiment": "Phosphopeptide binding assay, peptide-BSA coated IPR plate", "method": "A phosphopeptide derived from the IkBa degradation motif (SEQ ID NO: 1) and a phosphopeptide derived from c-Myc (SEQ ID NO: 4) were chemically synthesized (New England Peptide, Fitchburg Mass.) with the following sequences respectively:\nTo prepare IPR plates for use in the assay, approximately 2.4 pmol BSA, 1.2 pmole IκBα-24pp peptide-BSA conjugate or 1.2 pmole of Myc-p58Tp62S peptide-BSA conjugate in 2.5 μl were deposited on the carbon working electrode surface in a single well of a 96-well plate. At this stage, the plates were dried then used or stored under desiccated condition. A few hours prior to usage, the plates were rehydrated and blocked with 3% BSA, in PBS.\nTwo βTRCP genes, βTRCP1 and βTRCP2, are present in the human genome on […], respectively. The coding sequence of these two genes shares over 90% identity and several full-length cDNAs of which are available as EST clones from Incyte (Palo Alto, Calif.) IMAGE #3491843 and 4237375. Also included were three other non specific EST clones as controls (Incyte, Palo alto, Calif.). […] These DNAs were used to produce the βTRCP protein and proteins encoded by the other DNAs as described in the Example 7. Proteins were transferred into wells of the peptide-coated and BSA-blocked IPR plates. […] The ECL signals were measured using an imaging plate reader (IPR)."}, "BTK": {"molecular_target": "T2, BTK (Homo sapiens, UniProt Q06187)", "T2 construct": "specificity data for proteins generated from a library of eighteen full-length clones; host or cells: rabbit reticulocyte lysate, TnT coupled in vitro transcription/translation (cell-free)", "T2 sequence (Q06187 whole entry)": "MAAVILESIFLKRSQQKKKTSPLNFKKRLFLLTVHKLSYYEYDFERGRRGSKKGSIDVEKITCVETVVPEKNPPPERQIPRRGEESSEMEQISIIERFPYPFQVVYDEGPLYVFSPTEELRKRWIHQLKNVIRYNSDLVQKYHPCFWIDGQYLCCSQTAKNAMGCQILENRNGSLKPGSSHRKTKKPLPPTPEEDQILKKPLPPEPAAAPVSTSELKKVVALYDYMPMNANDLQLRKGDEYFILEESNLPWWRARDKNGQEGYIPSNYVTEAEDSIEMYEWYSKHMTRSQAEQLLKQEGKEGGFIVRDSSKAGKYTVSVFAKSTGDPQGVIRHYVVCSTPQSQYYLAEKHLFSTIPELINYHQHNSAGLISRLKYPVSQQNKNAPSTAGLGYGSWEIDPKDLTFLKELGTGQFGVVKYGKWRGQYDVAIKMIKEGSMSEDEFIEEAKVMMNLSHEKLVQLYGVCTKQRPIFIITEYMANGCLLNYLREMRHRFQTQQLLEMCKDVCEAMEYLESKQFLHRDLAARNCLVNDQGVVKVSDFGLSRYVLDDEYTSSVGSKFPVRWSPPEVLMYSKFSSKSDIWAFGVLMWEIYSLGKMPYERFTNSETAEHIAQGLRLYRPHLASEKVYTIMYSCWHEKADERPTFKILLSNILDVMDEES", "experiment": "Kinase inhibitor profiling, pEY phosphorylation", "assay_type": "biochemical", "method": "(§1) Proteins were produced in an in vitro transcription and translation reaction. […] The unbound components of the reaction containing endogenous kinases were removed by three washes with TT-buffer (25 mM Tris-HCl buffer pH 7.4 and 0.004% Triton), two five minutes washings with high-salt wash buffer (25 mM Tris-HCl buffer pH 7.4, 0.004% Triton, 1M NaCl and 5 mM DTT) and 3 more washes with TT-buffer. To these immobilized and purified proteins a tyrosine kinase substrate, 5 nM pEY (poly Glu-Tyr, Sigma, MO), was added in a 50 μl reaction solution containing 5 mM MgCl2, 5 mM MnCl2, 100 μM ATP, 25 mM Tris-HCl buffer pH 7.4, 0.05 mM Na3VO4, 0.004% TritonX-100, 2 mM DTT and EDTA-free protease inhibitor (Roche Molecular Biochemicals). This mixture was incubated with shaking at room temperature overnight to allow phosphorylation of the pEY substrate by the immobilized kinases. Following this incubation, 45 μl of this mixture was transferred to a streptavidin or avidin-coated NPT IPR plate coated with biotinylated anti-phosphotyrosine antibody (PY20, Zymed labs, CA) followed by incubation for 30 minutes at room temperature to allow the binding of the phosphorylated pEY substrate to the PY20 coated NPT plate. Following this binding step, 50 ng Sulfo-TAG labeled anti-phosphotyrosine in buffer containing 25 mM Tris-HCl buffer pH 7.4, 5 mM MgCl2, 0.05 mM Na3VO4, 0.004% TritonX-100, 2 mM DTT and 0.05% IgG was added followed by incubation at room temperature for 30 mm. The unbound reagents were removed by one time washing with water, and the TAG label was detected in presence of 150 μl IPR assay buffer (0.4 mM Gly-Gly buffer, pH 7.8, 1 mM EDTA, 0.1 M TPA). The ECL signals were measured using an imaging plate reader.\n(§2) The unbound components of the translation reaction (including any endogenous kinases) were removed by 3 washes with TT-buffer (25 mM Tris-HCl buffer pH 7.4 and 0.004% Triton), two five minutes washes with high-salt wash buffer (25 mM Tris-HCl buffer pH 7.4, 0.004% Triton, 1M NaCl and 5 mM DTT) and 3 washes with TT-buffer. […] The mixture was incubated at room temperature for 10 mm before starting the kinase reaction by adding 25 μl of 200 μM ATP in buffer A. This mixture was incubated with intermittent shaking at room temperature for 2 hours to overnight to allow (a) phosphorylation of the pEY substrate and (b) autophosphorylation of the immobilized kinases. Autophosphorylation and phosphorylation of the pEY was measured as described in Examples 7 and 8.\n(§3) The ECL signal in control wells produced by tyrosine kinases was compared to the wells containing inhibitor compounds."}, "LCK [2]": {"molecular_target": "T3, LCK (Homo sapiens, UniProt P06239)", "T3 construct": "specificity data for proteins generated from a library of eighteen full-length clones; host or cells: rabbit reticulocyte lysate, TnT coupled in vitro transcription/translation (cell-free)", "T3 sequence (P06239 whole entry)": "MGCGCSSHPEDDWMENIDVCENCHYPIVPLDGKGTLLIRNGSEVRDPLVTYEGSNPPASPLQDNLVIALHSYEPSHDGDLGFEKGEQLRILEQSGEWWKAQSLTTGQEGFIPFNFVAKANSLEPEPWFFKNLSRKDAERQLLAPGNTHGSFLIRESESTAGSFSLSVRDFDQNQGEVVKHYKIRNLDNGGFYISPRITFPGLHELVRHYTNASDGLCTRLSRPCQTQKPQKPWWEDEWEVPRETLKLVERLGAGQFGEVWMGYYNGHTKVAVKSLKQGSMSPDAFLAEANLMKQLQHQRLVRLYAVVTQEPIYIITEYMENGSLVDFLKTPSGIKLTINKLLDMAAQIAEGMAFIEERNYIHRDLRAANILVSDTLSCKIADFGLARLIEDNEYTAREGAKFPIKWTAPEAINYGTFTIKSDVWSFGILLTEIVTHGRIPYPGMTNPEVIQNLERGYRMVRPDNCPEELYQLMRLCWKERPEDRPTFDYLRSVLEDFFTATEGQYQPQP", "experiment": "Kinase inhibitor profiling, autophosphorylation", "assay_type": "biochemical", "method": "To promote autophosphorylation in these immobilized and purified proteins, Mn++ ions were added in a 50 μl reaction containing 5 mM MgCl2, 5 mM MnCl2, 100 μM ATP, 25 mM Tris-HCl buffer pH 7.4, 0.05 mM Na3VO4, 0.004% TritonX-100, 2 mM DTT and EDTA-free protease inhibitor (Roche Molecular Biochemicals). This mixture was incubated with shaking at room temperature overnight to allow autophosphorylation. Following this incubation, wells were washed 2 times with TT-buffer and 2 times with water. Following this step, 50 ng Sulfo-TAG labeled anti-phosphotyrosine in buffer containing 25 mM Tris-HCl buffer pH 7.4, 5 mM MgCl2, 0.05 mM Na3VO4, 0.004% TritonX-100, 2 mM DTT and 0.05% IgG in a final volume of 50 μl was added followed by incubation at room temperature for 45 min. The unbound reagents were removed by one time washing with water, and the TAG label was detected in presence of 150 μl IPR assay buffer (0.4 mM Gly—Gly buffer, pH 7.8, 1 mM EDTA, 0.1 M TPA). The ECL signals were measured using an imaging plate reader.\nas §2, with “kinases.” for “kinases. Autophosphorylation and phosphorylation of the pEY was measured as described in Examples 7 and 8.”\nas §3"}, "LCK [3]": {"molecular_target": "T3, LCK", "experiment": "Kinase inhibitor profiling, pEY phosphorylation", "assay_type": "biochemical", "method": "as §1, §2, §3"}}}
{"molecule": "3491843: IMAGE clone protein: βTRCP1 [compound 3491843]", "values": [{"measurement": "Average ECL signal, c-Myc peptide [SEQ ID No. 4]", "setting": "[1]", "value": 2118}]}
{"molecule": "3872466: IMAGE clone protein: mCBP [compound 3872466]", "values": [{"measurement": "Average ECL signal, c-Myc peptide [SEQ ID No. 4]", "setting": "[1]", "value": 351}]}
{"molecule": "CC(C)(C)c1cc(C=C(C#N)C#N)cc(Br)c1O", "note": "[AG-1024]", "values": [{"measurement": "Inhibition specificity towards pEY phosphorylation at 10X IC50, BTK", "setting": "BTK", "value": "H (high inhibition (“H”=less than 25% of the activity remaining))"}]}
{"molecule": "Cc1cc2ncc(-c3ccc(O)c(O)c3)nc2cc1C", "note": "[AG-1433]", "values": [{"measurement": "Inhibition specificity towards Autophosphorylation at 10X IC50, LCK", "setting": "LCK [2]", "value": "H (high inhibition (“H”=less than 25% of the activity remaining))"}, {"measurement": "Inhibition specificity towards pEY phosphorylation at 10X IC50, BTK", "setting": "BTK", "value": "H (high inhibition (“H”=less than 25% of the activity remaining))"}]}
{"molecule": "COc1c(C=O)c(O)cc2c1C(=O)c1ccccc1C2=O", "note": "[Damnacanthal]", "values": [{"measurement": "Inhibition specificity towards pEY phosphorylation at 10X IC50, BTK", "setting": "BTK", "value": "H (high inhibition (“H”=less than 25% of the activity remaining))"}]}
{"molecule": "Cc1ccc(-c2nn(C(C)(C)C)c3ncnc(N)c23)cc1", "note": "[PP1]", "values": [{"measurement": "Inhibition specificity towards pEY phosphorylation at 10X IC50, LCK", "setting": "LCK [3]", "value": "M (medium inhibition (“M”=between 25 to 50% of the activity remaining))"}]}
{"molecule": "COc1cc2ncnc(Nc3ccc(Cl)cc3F)c2cc1OC", "note": "[VEGFR inhibitor]", "values": [{"measurement": "Inhibition specificity towards Autophosphorylation at 10X IC50, LCK", "setting": "LCK [2]", "value": "L (low inhibition (“L”=between 50–75% of the activity remaining))"}, {"measurement": "Inhibition specificity towards pEY phosphorylation at 10X IC50, BTK", "setting": "BTK", "value": "M (medium inhibition (“M”=between 25 to 50% of the activity remaining))"}, {"measurement": "Inhibition specificity towards pEY phosphorylation at 10X IC50, LCK", "setting": "LCK [3]", "value": "H (high inhibition (“H”=less than 25% of the activity remaining))"}]}
{"molecule": "COc1cc2ncnc(Nc3ccc(O)cc3)c2cc1OC", "note": "[WHI-P131]", "values": [{"measurement": "Inhibition specificity towards Autophosphorylation at 10X IC50, LCK", "setting": "LCK [2]", "value": "M (medium inhibition (“M”=between 25 to 50% of the activity remaining))"}, {"measurement": "Inhibition specificity towards pEY phosphorylation at 10X IC50, BTK", "setting": "BTK", "value": "M (medium inhibition (“M”=between 25 to 50% of the activity remaining))"}, {"measurement": "Inhibition specificity towards pEY phosphorylation at 10X IC50, LCK", "setting": "LCK [3]", "value": "H (high inhibition (“H”=less than 25% of the activity remaining))"}]}
{"molecule": "Erbstatin analog", "values": [{"measurement": "Inhibition specificity towards Autophosphorylation at 10X IC50, LCK", "setting": "LCK [2]", "value": "L (low inhibition (“L”=between 50–75% of the activity remaining))"}]}
